As usually defined, the EC50 is the concentration giving half of the maximal effect.

T1 sequence (P10636 1-441 isoform P10636-8): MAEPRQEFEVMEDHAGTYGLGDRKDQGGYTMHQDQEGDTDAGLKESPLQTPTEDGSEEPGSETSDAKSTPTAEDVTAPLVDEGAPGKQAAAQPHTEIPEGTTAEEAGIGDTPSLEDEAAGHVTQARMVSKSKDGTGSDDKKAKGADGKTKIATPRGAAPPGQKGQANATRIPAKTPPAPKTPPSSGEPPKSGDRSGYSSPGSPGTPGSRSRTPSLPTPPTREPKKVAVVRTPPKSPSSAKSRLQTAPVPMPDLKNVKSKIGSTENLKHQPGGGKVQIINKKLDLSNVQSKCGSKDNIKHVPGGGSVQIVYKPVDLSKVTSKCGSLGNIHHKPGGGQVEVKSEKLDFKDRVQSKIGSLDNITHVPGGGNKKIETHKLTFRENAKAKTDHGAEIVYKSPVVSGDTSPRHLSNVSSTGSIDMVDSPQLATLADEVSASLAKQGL

The test has as its target T1, flTau aggregates (longest isoform of human Tau, 2N4R) (Homo sapiens, UniProt P10636).
T1 construct: 35 μM of recombinant full-length (fl) Tau in phosphate-buffered saline (PBS) were aggregated; purchased Biotechne; host or cells: bacteria
Put plainly: Full-length Tau (flTau) disaggregation assay by Thioflavin T (ThT). Format: biochemical. The following applies: ThT fluorescence; 60 nM flTau aggregates, 30 minutes at RT; read-out: flTau disaggregation EC50. As for the experimental part:
Full-Length Tau (flTau) Disaggregation Assay by Thioflavin T (ThT)
The longest isoform of human Tau (2N4R; 441 amino acids) was expressed in bacteria and purified (Biotechne). For the Tau disaggregation assay by ThT, 35 μM of recombinant full-length (fl) Tau in phosphate-buffered saline (PBS) were aggregated for 72 hours at 37° C. in presence of 35 μM of heparin (Sigma-Aldrich) and 10 mM of […] (Sigma-Aldrich) under shaking at 1000 RPM. Compound 1 was dissolved in anhydrous dimethyl sulfoxide (DMSO, Sigma-Aldrich) to reach a concentration of 2.5 mM. flTau aggregates and serial dilutions of compound 1 were mixed together in PBS (volume 50 μL) to a final concentration of 60 nM of flTau aggregates and from 20 to 0.0012 μM of Compound 1. The mixture was incubated for 30 minutes at room temperature (RT), then 40 μL of this mixture were transferred into a black 384-well plate assay (Perkin-Elmer) and mixed with 10 μL of 20 μM ThT in 250 mM glycine (both from Sigma-Aldrich) in PBS. Fluorescence (relative fluorescence units; RFU) was measured in monoplicate or duplicate on a Tecan reader (excitation: 440 nm; emission: 485 nm). Percentage of flTau disaggregation was then calculated and the half maximal effective concentration (EC50) was determined using GraphPad Prism version 8 (GraphPad Software) assuming a one-binding site fitting model, see Table 3 and Table 4.
As for `Cn1cc(-c2ccc3oc(N4CCOCC4)nc3c2)c2cc(F)cnc21` [Example 3, 5-(5-fluoro-1-methyl-1H-pyrrolo[2,3-b]pyridin-3-yl)-2-morpholinobenzo[d]oxazole], the EC50 lay in the range of 1000 to 10000 nM. Then `c1ccc2c(-c3ccc4oc(N5CCOCC5)nc4c3)n[nH]c2c1` [Example 4, 5-(1H-indazol-3-yl)-2-morpholinobenzo[d]oxazole], with below 1000 nM; and `C(#Cc1n[nH]c2ccccc12)c1ccc2oc(N3CCOCC3)nc2c1` [Example 5, 5-((1H-indazol-3-yl)ethynyl)-2-morpholinobenzo[d]oxazole], with below 1000 nM. Consider `C(#Cc1c[nH]c2ccccc12)c1ccc2oc(N3CCOCC3)nc2c1` [Example 6, 5-((1H-indol-3-yl)ethynyl)-2-morpholinobenzo[d]oxazole], for which the concentration for a half-maximal effect (EC50) fell in the range of 1000 to 10000 nM. Consider `c1ccc2c(-c3cnn(-c4ccc5oc(N6CCOCC6)nc5c4)c3)n[nH]c2c1` [Example 8, 5-(4-(1H-indazol-3-yl)-1H-pyrazol-1-yl)-2-morpholinobenzo[d]oxazole], for which the EC50 is below 1000 nM. As for `c1ccc2c(-c3ccn(-c4ccc5oc(N6CCOCC6)nc5c4)n3)n[nH]c2c1` [Example 10, 5-(3-(1H-indazol-3-yl)-1H-pyrazol-1-yl)-2-morpholinobenzo[d]oxazole], the EC50 was below 1000 nM. On to `c1ccc2c(-c3ccn(-c4ccc5oc(N6CCOCC6)nc5c4)n3)c[nH]c2c1` [Example 11, 5-(3-(1H-indol-3-yl)-1H-pyrazol-1-yl)-2-morpholinobenzo[d]oxazole], for which the 50% effective concentration (EC50) is below 1000 nM. Regarding `O=C(Nc1ccc2oc(N3CCOCC3)nc2c1)c1c[nH]c2ccccc12` [Example 12, N-(2-morpholinobenzo[d]oxazol-5-yl)-1H-indole-3-carboxamide], the concentration for a half-maximal effect (EC50) was below 1000 nM. `O=C(Nc1ccc2oc(N3CCOCC3)nc2c1)c1c[nH]c2ncccc12` [Example 13, N-(2-morpholinobenzo[d]oxazol-5-yl)-1H-pyrrolo[2,3-b]pyridine-3-carboxamide]: the EC50 was below 1000 nM. The figure for `O=C(Nc1ccc2oc(N3CCOCC3)nc2c1)c1n[nH]c2ccccc12` [Example 18, N-(2-morpholinobenzo[d]oxazol-5-yl)-1H-indazole-3-carboxamide] is 1000 to 10000 nM; for `Cn1cc(C2CCN(c3ccc4oc(N5CCOCC5)nc4c3)CC2)c2cccnc21` [Example 21, 5-(4-(1-methyl-1H-pyrrolo[2,3-b]pyridin-3-yl)piperidin-1-yl)-2-morpholinobenzo[d]oxazole] it is 1000 to 10000 nM. `Fc1cnc2[nH]cc(C3CCN(c4ccc5oc(N6CCOCC6)nc5c4)CC3)c2c1` [Example 22, 5-(4-(5-fluoro-1H-pyrrolo[2,3-b]pyridin-3-yl)piperidin-1-yl)-2-morpholinobenzo[d]oxazole]: the EC50 lay within 1000 to 10000 nM. Take `c1ccn2c(C3CCN(c4ccc5oc(N6CCOCC6)nc5c4)CC3)cnc2c1` [Example 25, 5-(4-(imidazo[1,2-a]pyridin-3-yl)piperidin-1-yl)-2-morpholinobenzo[d]oxazole]: the EC50 fell in the range of 1000 to 10000 nM. Turning to `c1ccc2c(C3CCN(c4cnc5nc(N6CCOCC6)sc5c4)CC3)c[nH]c2c1` [Example 28, 4-(6-(4-(1H-indol-3-yl)piperidin-1-yl)thiazolo[4,5-b]pyridin-2-yl)morpholine], the EC50 was below 1000 nM.

For `Fc1cnc2c(C3CCN(c4ccc5nc(N6CCOCC6)sc5c4)CC3)c[nH]c2c1` [Example 30, 4-(6-(4-(6-fluoro-1H-pyrrolo[3,2-b]pyridin-3-yl)piperidin-1-yl)benzo[d]thiazol-2-yl)morpholine], the EC50 was below 1000 nM. Turning to `Cn1nc(C2CCN(c3ccc4oc(N5CCOCC5)nc4c3)CC2)c2cccnc21` [Example 31, 5-(4-(1-methyl-1H-pyrazolo[3,4-b]pyridin-3-yl)piperidin-1-yl)-2-morpholinobenzo[d]oxazole], the EC50 lay in the range of 1000 to 10000 nM. Then `c1ccc2c(C3CCN(c4ccc5oc(N6CCOCC6)nc5c4)C3)c[nH]c2c1` (stereo not drawn) [Example 39, 5-(3-(1H-indol-3-yl)pyrrolidin-1-yl)-2-morpholinobenzo[d]oxazole], with 1000 to 10000 nM; and `c1ccc2c(C3CCN(c4ccc5oc(N6CCOCC6)nc5c4)C3)c[nH]c2c1` (stereo not drawn) [Example 40, 5-(3-(1H-indol-3-yl)pyrrolidin-1-yl)-2-morpholinobenzo[d]oxazole], with below 1000 nM. The figure for `c1ccc2c(C3CCN(c4cc5nc(N6CCOCC6)oc5cn4)CC3)n[nH]c2c1` [Example 45, 6-(4-(1H-indazol-3-yl)piperidin-1-yl)-2-morpholinooxazolo[5,4-c]pyridine] is 1000 to 10000 nM; for `c1ccc2c(C3CCN(c4cc5nc(N6CCOCC6)oc5cn4)CC3)c[nH]c2c1` [Example 48, 6-(4-(1H-indol-3-yl)piperidin-1-yl)-2-morpholinooxazolo[5,4-c]pyridine] it is 1000 to 10000 nM. As to `c1ccc2c(C3CCN(c4cnc5oc(N6CCOCC6)nc5c4)CC3)n[nH]c2c1` [Example 49, 6-(4-(1H-indazol-3-yl)piperidin-1-yl)-2-morpholinooxazolo[5,4-b]pyridine], the EC50 was in the range of 10000 to 50000 nM. In the case of `Fc1ccc2[nH]nc(C3CCN(c4ccc5oc(N6CCOCC6)nc5c4)CC3)c2c1` [Example 61, 5-(4-(5-fluoro-1H-indazol-3-yl)piperidin-1-yl)-2-morpholinobenzo[d]oxazole], the EC50 fell in the range of 1000 to 10000 nM.

As to `Cn1cc(C2CCN(c3ccc4oc(N5CCOCC5)nc4c3)CC2)c2ccccc21` [Example 68, 5-(4-(1-methyl-1H-indol-3-yl)piperidin-1-yl)-2-morpholinobenzo[d]oxazole], the EC50 lay in the range of 1000 to 10000 nM. Then `c1ccc2c(C3CCN(c4cc5oc(N6CCOCC6)nc5cn4)CC3)n[nH]c2c1` [Example 72, 6-(4-(1H-indazol-3-yl)piperidin-1-yl)-2-morpholinooxazolo[4,5-c]pyridine], with 10000 to 50000 nM; and `Fc1cccc2[nH]nc(C3CCN(c4ccc5oc(N6CCOCC6)nc5c4)CC3)c12` [Example 73, 5-(4-(4-fluoro-1H-indazol-3-yl)piperidin-1-yl)-2-morpholinobenzo[d]oxazole], with 1000 to 10000 nM.

In the case of `Fc1ccc2c(C3CCN(c4ccc5oc(N6CCOCC6)nc5c4)CC3)n[nH]c2c1` [Example 74, 5-(4-(6-fluoro-1H-indazol-3-yl)piperidin-1-yl)-2-morpholinobenzo[d]oxazole], the concentration for a half-maximal effect (EC50) was 1000 to 10000 nM. As to `Fc1cccc2c(C3CCN(c4ccc5oc(N6CCOCC6)nc5c4)CC3)n[nH]c12` [Example 75, 5-(4-(7-fluoro-1H-indazol-3-yl)piperidin-1-yl)-2-morpholinobenzo[d]oxazole], the concentration giving a half-maximal response (EC50) was below 1000 nM. As for `Cc1ccc2[nH]nc(C3CCN(c4ccc5oc(N6CCOCC6)nc5c4)CC3)c2c1` [Example 76, 5-(4-(5-methyl-1H-indazol-3-yl)piperidin-1-yl)-2-morpholinobenzo[d]oxazole], the concentration giving a half-maximal response (EC50) is 1000 to 10000 nM. The figure for `Cc1ccc2c(C3CCN(c4ccc5oc(N6CCOCC6)nc5c4)CC3)n[nH]c2c1` [Example 77, 5-(4-(6-methyl-1H-indazol-3-yl)piperidin-1-yl)-2-morpholinobenzo[d]oxazole] is 1000 to 10000 nM; for `Cc1cccc2c(C3CCN(c4ccc5oc(N6CCOCC6)nc5c4)CC3)n[nH]c12` [Example 78, 5-(4-(7-methyl-1H-indazol-3-yl)piperidin-1-yl)-2-morpholinobenzo[d]oxazole] it is 1000 to 10000 nM; for `c1ccc2c(N3CCN(c4ccc5oc(N6CCOCC6)nc5c4)CC3)n[nH]c2c1` [Example 79, 5-(4-(1H-indazol-3-yl)piperazin-1-yl)-2-morpholinobenzo[d]oxazole] it is below 1000 nM. Turning to `COC1CCN(c2nc3cc(N4CCC(c5n[nH]c6ccccc56)CC4)ccc3o2)CC1` [Example 80, 5-(4-(1H-indazol-3-yl)piperidin-1-yl)-2-(4-methoxypiperidin-1-yl)benzo[d]oxazole], the EC50 fell in the range of 1000 to 10000 nM. Then `Cn1cc(C2CCN(c3ccc4sc(N5CCOCC5)nc4c3)C2)c2cc(F)cnc21` (stereo not drawn) [Example 81, 4-(5-(3-(5-fluoro-1-methyl-1H-pyrrolo[2,3-b]pyridin-3-yl)pyrrolidin-1-yl)benzo[d]thiazol-2-yl)morpholine], with below 1000 nM; and `Cn1cc(C2CCN(c3ccc4nc(N5CCOCC5)sc4c3)C2)c2cc(F)cnc21` (stereo not drawn) [Example 82, 4-(6-(3-(5-fluoro-1-methyl-1H-pyrrolo[2,3-b]pyridin-3-yl)pyrrolidin-1-yl)benzo[d]thiazol-2-yl)morpholine], with below 1000 nM; and `Cn1cc(C2CCN(c3ccc4nc(N5CCOCC5)sc4c3)C2)c2cc(F)cnc21` (stereo not drawn) [Example 83, 4-(6-(3-(5-fluoro-1-methyl-1H-pyrrolo[2,3-b]pyridin-3-yl)pyrrolidin-1-yl)benzo[d]thiazol-2-yl)morpholine], with below 1000 nM. Turning to `Cn1cc(C2CCN(c3cnc4oc(N5CCOCC5)nc4c3)C2)c2cc(F)cnc21` (stereo not drawn) [Example 84, 6-(3-(5-fluoro-1-methyl-1H-pyrrolo[2,3-b]pyridin-3-yl)pyrrolidin-1-yl)-2-morpholinooxazolo[5,4-b]pyridine], the EC50 fell in the range of 1000 to 10000 nM.

The values are drawn from patent US20230391774A1, “Novel Compounds” (AC Immune SA, priority 2020, published 2023).
